# Results reported in PubChem BioAssay (NCI).
#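 Values below derive from 48-hour exposures of cells grown in 96-well plates, with endpoints linearly interpolated between the two concentrations bracketing the appropriate inhibition level. TGI marks complete inhibition of growth.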
# Experiments:
# Assay in all cases: inhibition of tumour cell growth, NCI panel, 48 h
# [1] = system: 786-0 renal
# [2] = system: A498 renal
# [3] = system: A549 NSCLC
# [4] = system: ACHN renal
# [5] = system: CAKI-1 renal
# [6] = system: CCRF-CEM leukemia
# [7] = system: COLO 205 colon
# [8] = system: DLD-1 colon
# [9] = system: DMS 114 small cell lung
# [10] = system: DMS 273 small cell lung
# [11] = system: EKVX NSCLC
# [12] = system: HCT-116 colon
# [13] = system: HL-60(TB) leukemia
# [14] = system: HOP-18 NSCLC
# [15] = system: HOP-62 NSCLC
# [16] = system: HOP-92 NSCLC
# [17] = system: HT29 colon
# [18] = system: IGROV1 ovarian
# [19] = system: K-562 leukemia
# [20] = system: KM12 colon
# [21] = system: KM20L2 colon
# [22] = system: LOX IMVI melanoma
# [23] = system: LXFL 529 NSCLC
# [24] = system: M14 melanoma
# [25] = system: M19-MEL melanoma
# [26] = system: MALME-3M melanoma
# [27] = system: MOLT-4 leukemia
# [28] = system: NCI-H226 lung
# [29] = system: NCI-H23 lung
# [30] = system: NCI-H460 lung
# [31] = system: NCI-H522 lung
# [32] = system: OVCAR-3 ovarian
# [33] = system: OVCAR-4 ovarian
# [34] = system: OVCAR-5 ovarian
# [35] = system: OVCAR-8 ovarian
# [36] = system: RPMI-8226 leukemia
# [37] = system: RXF 393 renal
# [38] = system: SF-268 CNS
# [39] = system: SF-295 CNS
# [40] = system: SF-539 CNS
# [41] = system: SK-MEL-2 melanoma
# [42] = system: SK-MEL-28 melanoma
# [43] = system: SK-MEL-5 melanoma
# [44] = system: SK-OV-3 ovarian
# [45] = system: SN12C renal
# [46] = system: SNB-19 CNS
# [47] = system: SNB-75 CNS
# [48] = system: SNB-78 CNS
# [49] = system: SW-620 colon
# [50] = system: TK-10 renal
# [51] = system: U251 CNS
# [52] = system: UACC-257 melanoma
# [53] = system: UACC-62 melanoma
# [54] = system: UO-31 renal
# [55] = system: XF 498 CNS
# [56] = system: HCC-2998 colon
# [57] = system: HCT-15 colon
smiles,measurement,setting,value
O=C(OCCO)C1CC2CC1C1(C2)OCCO1 (stereo unspecified),TGI,[1],> 100 µM
same,TGI,[2],> 100 µM
same,TGI,[3],> 100 µM
same,TGI,[4],> 100 µM
same,TGI,[5],> 100 µM
same,TGI,[6],> 100 µM
same,TGI,[7],> 100 µM
same,TGI,[8],> 100 µM
same,TGI,[9],> 100 µM
same,TGI,[10],> 100 µM
same,TGI,[11],> 100 µM
same,TGI,[12],> 100 µM
same,TGI,[13],> 100 µM
same,TGI,[14],> 100 µM
same,TGI,[15],> 100 µM
same,TGI,[16],> 100 µM
same,TGI,[17],> 100 µM
same,TGI,[18],> 100 µM
same,TGI,[19],> 100 µM
same,TGI,[20],> 100 µM
same,TGI,[21],> 100 µM
same,TGI,[22],> 100 µM
same,TGI,[23],> 100 µM
same,TGI,[24],> 100 µM
same,TGI,[25],> 100 µM
same,TGI,[26],> 100 µM
same,TGI,[27],> 100 µM
same,TGI,[28],> 100 µM
same,TGI,[29],> 100 µM
same,TGI,[30],> 100 µM
same,TGI,[31],> 100 µM
same,TGI,[32],> 100 µM
same,TGI,[33],> 100 µM
same,TGI,[34],> 100 µM
same,TGI,[35],> 100 µM
same,TGI,[36],> 100 µM
same,TGI,[37],> 100 µM
same,TGI,[38],> 100 µM
same,TGI,[39],> 100 µM
same,TGI,[40],> 100 µM
same,TGI,[41],> 100 µM
same,TGI,[42],> 100 µM
same,TGI,[43],> 100 µM
same,TGI,[44],> 100 µM
same,TGI,[45],> 100 µM
same,TGI,[46],> 100 µM
same,TGI,[47],> 100 µM
same,TGI,[48],> 100 µM
same,TGI,[49],> 100 µM
same,TGI,[50],> 100 µM
same,TGI,[51],> 100 µM
same,TGI,[52],> 100 µM
same,TGI,[53],> 100 µM
same,TGI,[54],> 100 µM
same,TGI,[55],> 100 µM
CC(=O)OC(C[C@H](C)[C@@H]1CC[C@]2(C)C3=CCC4C(C)(C)C(=O)CC[C@]4(C)C3CCC12C)C1OC1(C)C (stereo partly specified),TGI,[1],43.2 µM
same,TGI,[2],31.7 µM
same,TGI,[3],> 100 µM
same,TGI,[4],31.9 µM
same,TGI,[6],> 100 µM
same,TGI,[7],48.3 µM
same,TGI,[8],> 100 µM
same,TGI,[9],> 100 µM
same,TGI,[10],77.6 µM
same,TGI,[11],> 100 µM
same,TGI,[56],30.7 µM
same,TGI,[12],94.1 µM
same,TGI,[57],> 100 µM
same,TGI,[13],29.5 µM
same,TGI,[14],> 100 µM
same,TGI,[15],42.7 µM
same,TGI,[16],24.3 µM
same,TGI,[17],42.7 µM
same,TGI,[18],> 100 µM
same,TGI,[19],> 100 µM
same,TGI,[20],47.4 µM
same,TGI,[21],> 100 µM
same,TGI,[22],> 100 µM
same,TGI,[23],> 100 µM
same,TGI,[24],55.4 µM
same,TGI,[25],> 100 µM
same,TGI,[26],89.2 µM
same,TGI,[27],> 100 µM
same,TGI,[28],29 µM
same,TGI,[29],86.4 µM
same,TGI,[31],36.5 µM
same,TGI,[32],> 100 µM
same,TGI,[33],> 100 µM
same,TGI,[34],31.8 µM
same,TGI,[35],> 100 µM
same,TGI,[36],> 100 µM
same,TGI,[37],28.6 µM
same,TGI,[38],83.2 µM
same,TGI,[39],> 100 µM
same,TGI,[40],> 100 µM
same,TGI,[41],> 100 µM
same,TGI,[42],88.2 µM
same,TGI,[44],25.7 µM
same,TGI,[46],> 100 µM
same,TGI,[49],> 100 µM
same,TGI,[50],35.4 µM
same,TGI,[51],66.8 µM
same,TGI,[52],75.1 µM
same,TGI,[53],> 100 µM
same,TGI,[54],25.8 µM
same,TGI,[55],43.8 µM
